For this assay, the system named is Reaginic Passive Cutaneous Anaphylaxis (PCA). The assay can be described thus: Rat Reaginic Passive Cutaneous Anaphylaxis (PCA). Format: in vivo. The note with it: for inhibition in vivo at 5 mg/kg / inhibition in vivo at 1 mg/kg: ip, read-out: percent inhibition (PCA test); for inhibition (PCA test), oral: orally. The procedure: The compounds of the invention are new chemical substances of value as pharmacological agents which prevent the allergic response in mammals by inhibition of the release of such allergic mediators, as histamine. The assay by which this utility was established is carried out as follows.
Rat Reaginic Passive Cutaneous Anaphylaxis (PCA)
The PCA test (D. J. Herzig, P. R. Schumann, E. J. Kusner, L. Robichaud, R. E. Giles, B. Dubnick, M. von Strandtmann, S. Klutchko, M. Cohen, and J. Shavel, Jr., "Immunopharmacology", M. E. Rosenthale and H. C. Mansmann, Eds., Spectrum Publications, Inc., New York, N.Y., 1975, pp. 103-124) involved immunization of rats with 1 mg of ovalbumin intramuscularly and approximately 10^10 B. pertussis organisms as pertussis vaccine, intraperitoneally. Fourteen days later, the rats were bled and the serum was prepared. Suitable dilutions of antiserum were injected intradermally at various sites on the back of rats 48 h before an intravenous injection of 1 mg of ovalbumin in 1 ml of physiological saline and 0.25% Evans Blue. Thirty minutes later the animals were killed in ether, the dorsal skin was reflected, and the mean orthogonal diameter of the wheal was measured. For oral or intraperitoneal dosing, the drugs were suspended in 1% gum tragacanth in physiological saline and given 10-15 min before intravenous antigen challenge. For intravenous dosing, the compounds were dissolved in the saline/ovalbumin/Evans Blue solution and given with the antigen. If necessary, the compounds were first dissolved in a slight molar excess of sodium bicarbonate and then diluted into the antigen solution. Groups of five animals were used for all dose levels and control groups.
To quantitate the PCA test, the mean diameter of each wheal spot was graphed as a function of the relative antiserum concentration. The line, fitted by the least-squares equation, was extrapolated to the value at "zero" antiserum concentration (base value). The following equation was then used to calculate the percent inhibition: [formula]
The statistical significance of the results was determined by Student's t test (p≤0.05). An inhibition of 15% was significant. The test results obtained for the compounds of the invention as well as for the corresponding acids (U.S. Pat. No. 4,028,383) are given as percent inhibition in the following table.

Where [1] appears, read: 5 mg/kg, 10-15 min before intravenous antigen challenge.
Where [2] appears, read: 10-15 min before intravenous antigen challenge.

Regarding `Cn1c2c([N+](=O)[O-])cc([N+](=O)[O-])cc2c2oc(C(=O)O)cc(=O)c21` [6,8-di-NO2 /CH3 A, 4,5-Dihydro-5-methyl-6,8-dinitro-4-oxopyrano[3,2-b]indole-2-carboxylic acid, reference compound], the inhibition in vivo at 5 mg/kg under setting [1] was 0%.

`Cn1c2c([N+](=O)[O-])cc([N+](=O)[O-])cc2c2oc(C(=O)Nc3nnn[nH]3)cc(=O)c21` [6,8-di-NO2 /CH3 C, 4,5-Dihydro-5-methyl-6,8-dinitro-4-oxo-N-1H-tetrazol-5-ylpyrano[3,2-b]indole-2-carboxamide]: the inhibition in vivo at 5 mg/kg under setting [1] is 48%.

Turning to `Cc1ccc2c(c1)c1oc(C(=O)O)cc(=O)c1n2C` [8-CH3 /CH3 A, 4,5-dihydro-5,8-dimethyl-4-oxopyrano[3,2-b]indole-2-carboxylic acid, reference compound], the inhibition in vivo at 1 mg/kg under setting [2] is 18%.

Consider `Cc1ccc2c(c1)c1oc(C(=O)Nc3nnn[nH]3)cc(=O)c1n2C` [8-CH3 /CH3 C, 4,5-Dihydro-5,8-dimethyl-4-oxo-N-1H-tetrazol-5-ylpyrano[3,2-b]indole-2-carboxamide], for which, under setting [2], the inhibition in vivo at 1 mg/kg came to 33%. Moreover, under setting [1], the inhibition in vivo at 5 mg/kg came out at 100%.

Turning to `Cc1ccc2c(c1)c1oc(-c3nnn[nH]3)cc(=O)c1n2C` [8-CH3 /CH3 T, 5,8-Dimethyl-2-(1H-tetrazol-5-yl)pyrano[3,2-b]indol-4(5H)-one], the inhibition in vivo at 1 mg/kg under setting [2] was 25%. Also, the inhibition in vivo at 5 mg/kg under setting [1] was determined as 100%. Besides, the “inhibition (PCA test), oral” value (5 mg/kg) was 56%.

Take `Cn1c2ccc(Cl)cc2c2oc(C(=O)O)cc(=O)c21` [8-Cl/CH3 A, 8-chloro-4,5-dihydro-5-methyl-4-oxopyrano[3,2-b]indole-2-carboxylic acid, reference compound]: under setting [1], the inhibition in vivo at 5 mg/kg worked out at 23%.

With `Cn1c2ccc(Cl)cc2c2oc(C(=O)Nc3nnn[nH]3)cc(=O)c21` [8-Cl/CH3 C, 8-Chloro-4,5-dihydro-5-methyl-4-oxo-N-1H-tetrazol-5-ylpyrano[3,2-b]indole-2-carboxamide], the inhibition in vivo at 1 mg/kg under setting [2] was 38%. Besides, the inhibition in vivo at 5 mg/kg under setting [1] was 100%.

Consider `Cn1c2ccc(Cl)cc2c2oc(-c3nnn[nH]3)cc(=O)c21` [8-Cl/CH3 T, 8-Chloro-5-methyl-2-(1H-tetrazol-5-yl)pyrano[3,2-b]indol-4(5H)-one], for which the inhibition in vivo at 1 mg/kg under setting [2] came out at 46%. For the same compound, under setting [1], the inhibition in vivo at 5 mg/kg came out at 100%. Further, the “inhibition (PCA test), oral” value (5 mg/kg) came to 33%.

In the case of `Cn1c2ccc([N+](=O)[O-])cc2c2oc(C(=O)O)cc(=O)c21` [8-NO2 /CH3 A, 4,5-Dihydro-5-methyl-8-nitro-4-oxopyrano-[3,2-b]indole-2-carboxylic acid, reference compound], the inhibition in vivo at 1 mg/kg under setting [2] is 1%. Also, under setting [1], the inhibition in vivo at 5 mg/kg was 100%.

`Cn1c2ccc([N+](=O)[O-])cc2c2oc(C(=O)Nc3nnn[nH]3)cc(=O)c21` [8-NO2 /CH3 C, 4,5-Dihydro-5-methyl-8-nitro-4-oxo-N-1H-tetrazol-5-ylpyrano[3,2-b]indole-2-carboxamide]: under setting [2], the inhibition in vivo at 1 mg/kg turned out to be 42%. Moreover, under setting [1], the inhibition in vivo at 5 mg/kg was 100%.

Regarding `O=C(O)c1cc(=O)c2c(o1)c1ccccc1n2-c1ccccc1` [H/.phi. A, reference compound], under setting [2], the inhibition in vivo at 1 mg/kg came to 13%.

As to `O=C(Nc1nn[nH]n1)c1cc(=O)c2c(o1)c1ccccc1n2-c1ccccc1` [H/.phi. C], for the setting “i.p., 5 mg/kg, 10-15 min before intravenous antigen challenge”, the “percent inhibition (PCA test)” value was “Inac”.

Turning to `O=c1cc(-c2nnn[nH]2)oc2c3ccccc3n(-c3ccccc3)c12` [H/.phi. T, 5-Phenyl-2(1H-tetrazol-5-yl)pyrano[3,2-b]indol-4(5H)-one], for the setting “intravenously, 0.1 mg/kg, given with the antigen”, the “inhibition (PCA test), intravenous” value was 28%. Besides, the inhibition in vivo at 1 mg/kg under setting [2] stood at 61%. Moreover, under setting [1], the inhibition in vivo at 5 mg/kg was 100%. Besides, the “inhibition (PCA test), oral” value (2 mg/kg) came out at 32%.

Turning to `CCn1c2ccccc2c2oc(C(=O)O)cc(=O)c21` [H/C2 H5 A, 5-ethyl-4,5-dihydro-4-oxopyrano[3,2-b]indole-2-carboxylic acid, reference compound], the inhibition in vivo at 1 mg/kg under setting [2] worked out at 0%.

For the compound `CCn1c2ccccc2c2oc(C(=O)Nc3nnn[nH]3)cc(=O)c21` [H/C2 H5 C, 5-Ethyl-4,5-dihydro-4-oxo-N-1H-tetrazol-5-ylpyrano[3,2-b]indole-2-carboxamide], under setting [2], the inhibition in vivo at 1 mg/kg was found to be 12%. Under setting [1], the inhibition in vivo at 5 mg/kg came to 100%.

In the case of `CCn1c2ccccc2c2oc(-c3nnn[nH]3)cc(=O)c21` [H/C2 H5 T, 5-Ethyl-2-(1H-tetrazol-5-yl)pyrano[3,2-b]indol-4(5H)-one], the inhibition in vivo at 1 mg/kg under setting [2] was determined as 100%. Under setting [1], the inhibition in vivo at 5 mg/kg came to 100%. In addition, the “inhibition (PCA test), oral” value (5 mg/kg) was found to be 70%.

For `Cn1c2ccccc2c2oc(C(=O)O)cc(=O)c21` [H/CH3 A, 4,5-dihydro-5-methyl-4-oxopyrano[3,2-b]indole-2-carboxylic acid, reference compound], the inhibition in vivo at 1 mg/kg under setting [2] worked out at 30%. Under setting [1], the inhibition in vivo at 5 mg/kg was 100%.

On to `Cn1c2ccccc2c2oc(C(=O)Nc3nnn[nH]3)cc(=O)c21` [H/CH3 C, 4,5-Dihydro-5-methyl-4-oxo-N-1H-tetrazol-5-ylpyrano[3,2-b]indole-2-carboxamide], for which the inhibition in vivo at 1 mg/kg under setting [2] is 28%. For the same compound, under setting [1], the inhibition in vivo at 5 mg/kg turned out to be 100%.

As for `Cn1c2ccccc2c2oc(-c3nnn[nH]3)cc(=O)c21` [H/CH3 T, 5-Methyl-2(1H-tetrazol-5-yl)pyrano[3,2-b]indol-4(5H)-one], under setting [2], the inhibition in vivo at 1 mg/kg was 87%. The inhibition in vivo at 5 mg/kg under setting [1] came out at 100%. In addition, the “inhibition (PCA test), oral” value by setting is: (2 mg/kg) 12%; (5 mg/kg) 39%.

(Values after US4316904A, “Indolopyrone tetrazoles and carboxamidotetrazoles having antiallergic activity” (priority 1979, dated 1982).)
